One experiment concerns HOB cells. Kind of experiment: Cell adhesion assay (cell attachment and cell spreading), HOB cells. Type of experiment: cell-based, human. The settings on record: for inhibition at 5 µM: Homo sapiens. The protocol: To evaluate cell attachment and cell spreading exponentially growing cells were detached from substratum by trypsinisation (0.25% (v/v) trypsin in 5 mM EDTA), collected into medium containing a ˜7% (V/V) final concentration of FCS, washed twice with medium without serum and then plated (2×10^4cells/well) onto FN-coated 96-well plates with and without further immobilisation of tTG. After a maximum of 20-minute incubation (to minimise the effect of any endogenous secreted proteins) at 37° C. in a 5% CO2 atmosphere, cells were fixed in 3.7% (w/v) paraformaldehyde in PBS pH 7.4, permeabilised in 0.1% (v/v) Triton X-100 and stained with May Grunwald and Giemsa stain (Jones et al 1997, Verderio et al. 2000). In some cases cells were pre-treated for 15 hours with 1 mM cycloheximide before plating to rule out any effects of endogenous secreted adhesion molecules. Digital images of three non-overlapping fields covering the central portion of each well was captured using a video digital camera (Olympus DP10) and examined using the Image Analysis programme Scion Image (National Institute of Health, USA). A total of at least nine images of separate fields per sample were examined for a total of at least 900 cells in the FN control. The number of cell particles in each field was measured by thresholding and particle analysis setting a minimum particle size of 50 pixels. Spread cells were analysed and quantified by “density slicing” and particle analysis.
Adhesion of cells to FN was decreased by pre-incubation with RGD synthetic peptide (50 μg/ml, ˜75 ∝M, 100 μg/ml ˜150 μM, or 200 μg/ml ˜300 μM) or function blocking anti-integrin antibodies 40 μg/ml anti-β1 integrin (JB1A), 30 μg/ml anti-α5 integrin (P1D6). Detached cells (as described above) were pre-incubated in suspension (2×10^5cells/ml) in serum-free medium containing either RGD peptide or anti-integrins antibodies at 37° C. for 10 minutes in 5% CO2 atmosphere, and then seeded in the presence of the peptides.

The subject of a further experiment is human plasma FN. The experiment can be described thus: ELISA-type assay of tTG bound to immobilised FN. In kind it is binding. The settings on record: 1 mM GTP-γS; ELISA using Cub 74. The protocol: The wells of a 96-well plate (0.32 cm^2) were coated with human plasma FN (5 μg/ml) in 50 mM Tris-HCl, pH 7.4, […], by incubation at 4° C. for approximately 15 h. For tTG immobilisation, the FN solution was removed, the wells were washed once in 50 mM Tris-HCl, pH 7.4 and then incubated with purified guinea pig liver tTG (20 μg/ml) in PBS pH 7.4 containing 2 mM EDTA pH 7.4, 100 μl/well. For control wells coated with tTG only, the tTG solution was added directly to tissue culture plastic (TCP). After one hour-incubation at 37° C., the tTG solution was removed and wells were washed once in 50 mM Tris-HCl, pH 7.4 and once in serum-free culture medium before cell seeding. The presence of tTG immobilised on FN was confirmed by an ELISA-type assay (Jones et al. 1997), using Cub 74 (1:5000). Absorbance values were read in an ELISA plate reader at 450 nm (Tecan Spectrafluor). […] Absorbance values were read at 450 nm and data were expressed as absorbance value with Ca^2+ in the reaction buffer minus background absorbance value with EDTA in the reaction buffer. Similarly to tTG, FN antigen was detected by using a modified ELISA based on a rabbit polyclonal anti-FN antibody (1/5000) followed by peroxidase-labelled anti-rabbit IgG (1/5000).
In general terms: An ELISA detects its analyte on a solid surface through an enzyme-linked reagent.

For the next experiment, the target named is T1, guinea pig liver tTG (Cavia cutleri, UniProt P08587).
T1 construct: Purified guinea pig liver tTG was either obtained by Sigma-Aldrich or purified in the laboratory; tissue Sigma-Aldrich (or purified in the laboratory according to Leblanc et al., 1999); host or cells: guinea pig liver
T1 sequence (P08587 2-690): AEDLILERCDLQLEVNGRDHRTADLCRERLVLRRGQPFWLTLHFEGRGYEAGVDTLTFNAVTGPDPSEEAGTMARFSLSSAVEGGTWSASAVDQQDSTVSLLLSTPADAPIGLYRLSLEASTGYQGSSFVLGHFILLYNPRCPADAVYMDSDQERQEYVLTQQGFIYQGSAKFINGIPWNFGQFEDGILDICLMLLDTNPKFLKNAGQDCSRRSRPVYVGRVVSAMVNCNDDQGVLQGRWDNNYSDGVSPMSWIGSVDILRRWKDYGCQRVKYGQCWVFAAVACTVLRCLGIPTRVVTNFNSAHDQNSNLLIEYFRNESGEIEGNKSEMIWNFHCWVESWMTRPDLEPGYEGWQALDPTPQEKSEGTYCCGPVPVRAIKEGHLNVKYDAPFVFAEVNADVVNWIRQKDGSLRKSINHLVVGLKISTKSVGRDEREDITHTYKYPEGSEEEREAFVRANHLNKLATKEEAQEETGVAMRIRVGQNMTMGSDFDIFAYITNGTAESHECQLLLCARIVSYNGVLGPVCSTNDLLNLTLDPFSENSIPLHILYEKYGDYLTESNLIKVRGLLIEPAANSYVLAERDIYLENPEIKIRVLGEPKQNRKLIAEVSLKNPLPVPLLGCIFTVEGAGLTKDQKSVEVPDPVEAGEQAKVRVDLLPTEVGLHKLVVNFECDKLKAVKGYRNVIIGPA
The experiment can be described thus: tTG cross-linking activity (incorporation of biotinylated cadaverine into FN). In kind it is biochemical. As for the experimental part: The wells of a 96-well plate (0.32 cm^2) were coated with human plasma FN (5 μg/ml) in 50 mM Tris-HCl, pH 7.4, […], by incubation at 4° C. for approximately 15 h. For tTG immobilisation, the FN solution was removed, the wells were washed once in 50 mM Tris-HCl, pH 7.4 and then incubated with purified guinea pig liver tTG (20 μg/ml) in PBS pH 7.4 containing 2 mM EDTA pH 7.4, 100 μl/well. For control wells coated with tTG only, the tTG solution was added directly to tissue culture plastic (TCP). After one hour-incubation at 37° C., the tTG solution was removed and wells were washed once in 50 mM Tris-HCl, pH 7.4 and once in serum-free culture medium before cell seeding. The presence of tTG immobilised on FN was confirmed by an ELISA-type assay (Jones et al. 1997), using Cub 74 (1:5000). Absorbance values were read in an ELISA plate reader at 450 nm (Tecan Spectrafluor). Confirmation that the immobilised tTG was still active as a Ca^2+-dependent ε-(γ-glutamyl)lysine crosslinker was gained by measuring tTG activity with a microtitre assay that is based on the incorporation of biotinylated cadaverine into FN in the presence of 5 mM CaCl2 and 5 mM DTT (Jones et al. 1997) and compared with the activity of free tTG standard. To confirm that the cross-linking activity was Ca^2+-dependent, 5 mM CaCl2 was replaced with 5 mM EDTA pH 7.4. Absorbance values were read at 450 nm and data were expressed as absorbance value with Ca^2+ in the reaction buffer minus background absorbance value with EDTA in the reaction buffer. Similarly to tTG, FN antigen was detected by using a modified ELISA based on a rabbit polyclonal anti-FN antibody (1/5000) followed by peroxidase-labelled anti-rabbit IgG (1/5000).

Experiment [1] concerns the target T2, tTG activity found at the HOB cell-surface (Homo sapiens, UniProt P21980).
T2 construct: the low tTG activity found at the HOB cell-surface; endogenous in cells; host or cells: primary human osteoblasts (HOB)
T2 sequence (P21980 1-687): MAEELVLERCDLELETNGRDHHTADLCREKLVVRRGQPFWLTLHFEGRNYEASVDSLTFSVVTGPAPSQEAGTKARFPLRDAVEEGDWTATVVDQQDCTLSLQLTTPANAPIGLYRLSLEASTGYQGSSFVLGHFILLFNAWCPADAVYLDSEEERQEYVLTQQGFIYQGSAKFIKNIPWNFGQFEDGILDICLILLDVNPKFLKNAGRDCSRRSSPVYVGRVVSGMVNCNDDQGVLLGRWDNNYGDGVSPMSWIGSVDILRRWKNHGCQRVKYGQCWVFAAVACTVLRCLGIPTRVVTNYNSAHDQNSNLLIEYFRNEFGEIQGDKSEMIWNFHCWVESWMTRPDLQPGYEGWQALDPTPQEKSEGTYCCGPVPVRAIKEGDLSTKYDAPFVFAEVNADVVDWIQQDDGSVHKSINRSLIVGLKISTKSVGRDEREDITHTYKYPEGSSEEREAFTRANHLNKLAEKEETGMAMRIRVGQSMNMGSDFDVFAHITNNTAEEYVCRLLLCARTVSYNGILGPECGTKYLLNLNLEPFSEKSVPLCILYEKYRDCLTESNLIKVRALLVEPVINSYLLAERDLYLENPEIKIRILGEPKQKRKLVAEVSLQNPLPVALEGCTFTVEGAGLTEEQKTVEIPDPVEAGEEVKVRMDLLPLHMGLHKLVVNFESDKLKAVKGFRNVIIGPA
Kind of experiment: tTG activity at the HOB cell-surface. In kind it is cell-based. The settings on record: R283 treatment; data not shown.

[2] abbreviates: enzyme pre-treatment 15 mU/ml, RGD 100 μg/ml.

Where two headings read alike, the source gives them in different places.

Take GRADSP [RAD peptide]: the “cell attachment on FN compared to untreated cells (RAD 0)” value in the experiment on HOB cells (200 μg/ml RAD control peptide) was “reduction in cell attachment”.
`Cn1c2ccccc2c2c3c(c4c5ccccc5n(CCC#N)c4c21)CNC3=O` [GO6976]: in the experiment on HOB cells (5 μM GO6976, FN + RGD), the “effect on inhibition of attachment and spreading mediated by the RGD peptide” value is “significantly augment the inhibition”. The inhibition (commonly the relative decrease from the control value, in per cent) at 5 µM in the experiment with HOB cells (5 μM GO6976, RGD peptide, read-out: inhibition of attachment mediated by the tTG-FN complex) is above 90%; in the experiment on HOB cells (5 μM GO6976, RGD peptide, read-out: inhibition of spreading mediated by the tTG-FN complex) it was around 85%; with HOB cells (5 μM GO6976, control peptide RAD, read-out: inhibition of attachment on FN), around 30%; with HOB cells (5 μM GO6976, control peptide RAD, read-out: inhibition of spreading on FN), around 30%.
In the case of `Nc1nc2c(ncn2[C@@H]2O[C@H](COP(=O)(O)OP(=O)(O)OP(O)(O)=S)[C@@H](O)[C@H]2O)c(=O)[nH]1` [GTP-γS], in the experiment on human plasma FN, the “level of tTG immobilised on FN” value is listed as “did not significantly alter”. The “transamidating activity of FN-bound tTG” value on guinea pig liver tTG (GTP-γS, DMEM with reducing agent, data not shown) is “acts as transamidating inhibitor”. Further, the “RGD-independent cell attachment and spreading mediated by tTG-FN” value in the experiment with HOB cells (1 mM GTP-γS, RGD 100 μg/ml) was “partially but significantly reduced”.
Take chondroitinase ABC: in the experiment with HOB cells (chondroitinase ABC 15 mU/ml), the “cell adhesion to FN” value is “no significant affect”. Further, in the experiment with HOB cells (setting [2]), the “RGD-independent cell attachment on tTG-FN” value is reported as “only marginally affected” and the “RGD-independent cell spreading on tTG-FN” value was “did not significantly alter”.
On to `O[C@@H](CS)[C@@H](O)CS` [DTT], for which the “increase of transamidating activity of FN-bound tTG” value at guinea pig liver tTG (DMEM with 5 mM DTT versus DMEM) is listed as “approx 6 fold”.
For `CC(=O)CSc1n(C)cc[n+]1C.[Cl-]` [R283], the “transamidating activity of immobilised tTG” value on guinea pig liver tTG (100 μM R283) is reported as “completely blocked”. In addition, the “tTG activity at the HOB cell-surface” value in experiment [1] is on record as “inhibited to negligible values”. Moreover, in the experiment with HOB cells (100 μM R283), the “cell adhesion on FN bound to R283-inactivated tTG relative to adhesion on FN with RGD peptide” value is on record as “twice”. For the same compound, the “cell adhesion on FN bound to R283-inactivated tTG versus without R283” value with HOB cells (100 μM R283, with or without RGD peptide) was “not significantly different”.

Values taken from patent US20070077607A1, “Novel screening method” (priority 2003, published 2007).
